# Non-standard residues stand in square brackets, D forms with d. Residues, ends and D or L forms follow the SMILES beside them. dPhe(4-Cl) = N[C@H](Cc1ccc(Cl)cc1)C(=O)O; d2Nal = N[C@H](Cc1ccc2ccccc2c1)C(=O)O; dCit = NC(=O)NCCC[C@@H](N)C(=O)O; d3Pal = N[C@H](Cc1cccnc1)C(=O)O
# Columns and labels:
# study subjects [1] = experiment: Nocturia: how often the study subjects got up during the night in order to urinate; format: in vivo, human
# Description: (§1) The results shown are percentage variations from baseline at the beginning of the study (week 0).
# The results shown are mean values, how often the study subjects had to get up.
# study subjects [2] = experiment: Frequency of emptying: how often the study subjects had to urinate a second time within a 2 hour test period; format: in vivo, human
# Description: as §1
# The results shown are mean values, how often the study subjects had to urinate a second time.
# study subjects [3] = experiment: IPSS irritative subscore (sum of nocturia, frequency of emptying and urgency to urinate); format: in vivo, human; details: for IPSS irritative subscore (nocturia, frequency of emptying, urgency to urinate): percentage variation from baseline
# Description: as §1
# [4] = system: testosterone blood levels; experiment: Median testosterone blood levels / chemical (hormonal) castration; details: for Testosterone [ng/mL] (median): blood level
# Description: Preferably, chemical (hormonal) castration is a testosterone castration and refers to a testosterone blood level of equal or below 1.2 ng/mL, preferably 0.5 ng/mL.
# Study subjects were treated with Cetrorelix pamoate with the following doses according to the following administration schemes: • 60 mg Cetrorelix pamaote administered at week 0 and 30 mg Cetrorelix pamaote administered at week 2 (treatment period) followed by up to 5 months of no treatment (treatment-free period) • 60 mg Cetrorelix pamaote administered at week 0 and 60 mg Cetrorelix pamaote administered at week 2 (treatment period) followed by up to 5 months of no treatment (treatment-free period)
# Study subjects were treated with Cetrorelix acetate with the following doses according to the following administration schemes: • 5 mg Cetrorelix acetate administered at week 0, 1, 2 and 3 (total monthly dose of 20 mg) (treatment period) followed by up to 4 months of no treatment (treatment-free period) • 10 mg Cetrorelix acetate administered at week 0 and 10 mg Cetrorelix acetate administered at week 2 (treatment period) followed by up to 4 months of no treatment (treatment-free period) • 10 mg Cetrorelix acetate administered at week 0, 1, 2 and 3 (total monthly dose of 40 mg) (treatment period) followed by up to 4 months of no treatment (treatment-free period)
# Study subjects were treated with Ozarelix with the following doses according to the following administration schemes: • 15 mg Ozarelix administered at week 0 and 15 mg Ozarelix administered at week 2 (treatment period) followed by up to 4 months of no treatment (treatment-free period)
# [5] = 2 × 10: 10 mg at week 0 and week 2, Week 0
# [6] = 2 × 10: 10 mg at week 0 and week 2, Week 4
# [7] = 2 × 10: 10 mg at week 0 and week 2, Week 8
# [8] = 2 × 10: 10 mg at week 0 and week 2, Week 12
# [9] = 2 × 10: 10 mg at week 0 and week 2, Week 16
# [10] = 2 × 10: 10 mg at week 0 and week 2, Week 20
# [11] = 4 × 5: 5 mg at week 0, 1, 2 and 3, Week 0
# [12] = 4 × 5: 5 mg at week 0, 1, 2 and 3, Week 4
# [13] = 4 × 5: 5 mg at week 0, 1, 2 and 3, Week 8
# [14] = 4 × 5: 5 mg at week 0, 1, 2 and 3, Week 12
# [15] = 4 × 5: 5 mg at week 0, 1, 2 and 3, Week 16
# [16] = 4 × 5: 5 mg at week 0, 1, 2 and 3, Week 20
# [17] = 4 × 10: 10 mg at week 0, 1, 2 and 3, Week 0
# [18] = 4 × 10: 10 mg at week 0, 1, 2 and 3, Week 4
# [19] = 4 × 10: 10 mg at week 0, 1, 2 and 3, Week 8
# [20] = 4 × 10: 10 mg at week 0, 1, 2 and 3, Week 12
# [21] = 4 × 10: 10 mg at week 0, 1, 2 and 3, Week 16
# [22] = 4 × 10: 10 mg at week 0, 1, 2 and 3, Week 20
# [23] = 5+5+5+5 mg, 10+10 mg and 10+10+10+10 mg schemes, largest difference, n-times mean
smiles,measurement,setting,value
CC(=O)N[C@H](Cc1ccc2ccccc2c1)C(=O)N[C@H](Cc1ccc(Cl)cc1)C(=O)N[C@H](Cc1cccnc1)C(=O)N[C@@H](CO)C(=O)N[C@@H](Cc1ccc(O)cc1)C(=O)N[C@H](CCCNC(N)=O)C(=O)N[C@@H](CC(C)C)C(=O)N[C@@H](CCCNC(=N)N)C(=O)N1CCC[C@H]1C(=O)N[C@H](C)C(N)=O [Cetrorelix acetate] (Ac-[d2Nal][dPhe(4-Cl)][d3Pal]SY[dCit]LRP[dA]-NH2),"Nocturia (n-times, mean)",study subjects [1]; [5],2.69 n-times
same,"Nocturia (n-times, mean)",study subjects [1]; [6],2.00 n-times
same,"Nocturia (n-times, mean)",study subjects [1]; [7],2.06 n-times
same,"Nocturia (n-times, mean)",study subjects [1]; [8],1.97 n-times
same,"Nocturia (n-times, mean)",study subjects [1]; [9],1.97 n-times
same,"Nocturia (n-times, mean)",study subjects [1]; [10],2.16 n-times
same,"Nocturia (n-times, mean)",study subjects [1]; [11],2.57 n-times
same,"Nocturia (n-times, mean)",study subjects [1]; [12],2.09 n-times
same,"Nocturia (n-times, mean)",study subjects [1]; [13],1.94 n-times
same,"Nocturia (n-times, mean)",study subjects [1]; [14],1.85 n-times
same,"Nocturia (n-times, mean)",study subjects [1]; [15],1.79 n-times
same,"Nocturia (n-times, mean)",study subjects [1]; [16],1.85 n-times
same,"Nocturia (n-times, mean)",study subjects [1]; [17],2.63 n-times
same,"Nocturia (n-times, mean)",study subjects [1]; [18],1.79 n-times
same,"Nocturia (n-times, mean)",study subjects [1]; [19],1.78 n-times
same,"Nocturia (n-times, mean)",study subjects [1]; [20],1.75 n-times
same,"Nocturia (n-times, mean)",study subjects [1]; [21],1.87 n-times
same,"Nocturia (n-times, mean)",study subjects [1]; [22],2.16 n-times
same,decrease in nocturia frequency compared to placebo,study subjects [1]; [23],up to 0.71
same,"Frequency of emptying (n-times, mean)",study subjects [2]; [5],2.29 n-times
same,"Frequency of emptying (n-times, mean)",study subjects [2]; [6],1.86 n-times
same,"Frequency of emptying (n-times, mean)",study subjects [2]; [7],1.58 n-times
same,"Frequency of emptying (n-times, mean)",study subjects [2]; [8],1.55 n-times
same,"Frequency of emptying (n-times, mean)",study subjects [2]; [9],1.45 n-times
same,"Frequency of emptying (n-times, mean)",study subjects [2]; [10],1.66 n-times
same,"Frequency of emptying (n-times, mean)",study subjects [2]; [11],2.49 n-times
same,"Frequency of emptying (n-times, mean)",study subjects [2]; [12],2.23 n-times
same,"Frequency of emptying (n-times, mean)",study subjects [2]; [13],2.00 n-times
same,"Frequency of emptying (n-times, mean)",study subjects [2]; [14],1.73 n-times
same,"Frequency of emptying (n-times, mean)",study subjects [2]; [15],1.52 n-times
same,"Frequency of emptying (n-times, mean)",study subjects [2]; [16],1.79 n-times
same,"Frequency of emptying (n-times, mean)",study subjects [2]; [17],2.86 n-times
same,"Frequency of emptying (n-times, mean)",study subjects [2]; [18],1.62 n-times
same,"Frequency of emptying (n-times, mean)",study subjects [2]; [19],1.66 n-times
same,"Frequency of emptying (n-times, mean)",study subjects [2]; [20],1.81 n-times
same,"Frequency of emptying (n-times, mean)",study subjects [2]; [21],1.65 n-times
same,"Frequency of emptying (n-times, mean)",study subjects [2]; [22],1.78 n-times
same,decrease in frequency of emptying compared to placebo,study subjects [2]; [23],up to 1.35
same,further decrease in IPSS irritative subscore compared to placebo,"study subjects [3]; 5+5+5+5 mg, 10+10 mg and 10+10+10+10 mg schemes, largest difference",up to 43%
same,"IPSS irritative subscore (nocturia, frequency of emptying, urgency to urinate)",study subjects [3]; [5],0%
same,"IPSS irritative subscore (nocturia, frequency of emptying, urgency to urinate)",study subjects [3]; [6],−25%
same,"IPSS irritative subscore (nocturia, frequency of emptying, urgency to urinate)",study subjects [3]; [7],−33.3%
same,"IPSS irritative subscore (nocturia, frequency of emptying, urgency to urinate)",study subjects [3]; [8],−33.3%
same,"IPSS irritative subscore (nocturia, frequency of emptying, urgency to urinate)",study subjects [3]; [9],−42.9%
same,"IPSS irritative subscore (nocturia, frequency of emptying, urgency to urinate)",study subjects [3]; [10],−29.2%
same,"IPSS irritative subscore (nocturia, frequency of emptying, urgency to urinate)",study subjects [3]; [11],0%
same,"IPSS irritative subscore (nocturia, frequency of emptying, urgency to urinate)",study subjects [3]; [12],−16.7%
same,"IPSS irritative subscore (nocturia, frequency of emptying, urgency to urinate)",study subjects [3]; [13],−25%
same,"IPSS irritative subscore (nocturia, frequency of emptying, urgency to urinate)",study subjects [3]; [14],−28.6%
same,"IPSS irritative subscore (nocturia, frequency of emptying, urgency to urinate)",study subjects [3]; [15],−30.8%
same,"IPSS irritative subscore (nocturia, frequency of emptying, urgency to urinate)",study subjects [3]; [16],−29.7%
same,"IPSS irritative subscore (nocturia, frequency of emptying, urgency to urinate)",study subjects [3]; [17],0%
same,"IPSS irritative subscore (nocturia, frequency of emptying, urgency to urinate)",study subjects [3]; [18],−29.3%
same,"IPSS irritative subscore (nocturia, frequency of emptying, urgency to urinate)",study subjects [3]; [19],−31%
same,"IPSS irritative subscore (nocturia, frequency of emptying, urgency to urinate)",study subjects [3]; [20],−25%
same,"IPSS irritative subscore (nocturia, frequency of emptying, urgency to urinate)",study subjects [3]; [21],−28.6%
same,"IPSS irritative subscore (nocturia, frequency of emptying, urgency to urinate)",study subjects [3]; [22],−25%
same,chemical (hormonal) castration,"[4]; 5+5+5+5 mg, 10+10 mg and 10+10+10+10 mg schemes, conclusion from median testosterone blood levels",successfully prevented
same,Testosterone [ng/mL] (median),[4]; [5],3.27 ng/mL
same,Testosterone [ng/mL] (median),[4]; [6],4.41 ng/mL
same,Testosterone [ng/mL] (median),[4]; [7],3.73 ng/mL
same,Testosterone [ng/mL] (median),[4]; [8],4.45 ng/mL
same,Testosterone [ng/mL] (median),[4]; [9],4.16 ng/mL
same,Testosterone [ng/mL] (median),[4]; [10],4.12 ng/mL
same,Testosterone [ng/mL] (median),[4]; [11],3.42 ng/mL
same,Testosterone [ng/mL] (median),[4]; [12],2.95 ng/mL
same,Testosterone [ng/mL] (median),[4]; [13],3.77 ng/mL
same,Testosterone [ng/mL] (median),[4]; [14],4.11 ng/mL
same,Testosterone [ng/mL] (median),[4]; [15],3.91 ng/mL
same,Testosterone [ng/mL] (median),[4]; [16],3.49 ng/mL
same,Testosterone [ng/mL] (median),[4]; [17],3.41 ng/mL
same,Testosterone [ng/mL] (median),[4]; [18],2.17 ng/mL
same,Testosterone [ng/mL] (median),[4]; [19],3.82 ng/mL
same,Testosterone [ng/mL] (median),[4]; [20],4.32 ng/mL
same,Testosterone [ng/mL] (median),[4]; [21],4.32 ng/mL
same,Testosterone [ng/mL] (median),[4]; [22],4.06 ng/mL
